In patent publication US7829665B2 (priority 2005, dated 2010):

Columns and labels:
[1] = target: T1, full-length NS3/NS4A-2 (HCV NS3 protease) (Hepatitis C virus genotype 1a, UniProt P27958); test: NS3-NS4 protease assay / NS3 inhibition assay (RETS1 substrate, fluorescence kinetic read); type: biochemical; conditions: recombinant E. coli or Baculovirus full-length NS3 with NS4A-2; read-out: NS3-NS4 IC50
T1 construct: Recombinant E. coli or Baculovirus full-length NS3 was diluted to 3.33 μM with assay buffer; made in house; host or cells: E. coli or baculovirus (BV) expression system
Method in brief: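 Full-length NS3 from E. coli (2 nM in assay) or baculovirus (3 nM) was precomplexed with excess NS4A-2 peptide, then preincubated 10 min at room temperature with serially diluted compounds starting at 50 microM. Reaction was started with RETS1 substrate at 8 μM before addition and read kinetically for 30 min (ex 335/em 495 nm). Four-parameter IC50s were converted to Ki by Cheng-Prusoff using Km 2.03 μM (E. coli) or 1.74 μM (BV).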

[2] = test system: HCV sub-genomic replicon in GS4.3 cells (HuH-7 hepatoma cells); test: Quantitation by ELISA of Neomycin phosphotransferase II (NPTII) in the HCV sub-genomic replicon, GS4.3; type: cell-based, hepatitis C virus; conditions: Hepatitis C virus, Huh-7; GS4.3 cells, 72 h incubation, NPTII ELISA; read-out: Replicon EC50
Method in brief: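 HuH-7 GS4.3 cells carrying HCV sub-genomic replicon 1377/NS3-3′, treated 72 h at 37 °C without G418 with 3-fold dilutions from 10 μM to 56 pM (1% DMSO). NPTII in cell lysates measured by direct ELISA with TMB readout at 450 nm. EC50 from 4-parameter fit of percent DMSO-control signal.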

[3] = from C=CCCCCC[C@H](NC(=O)OC(C)(C)C)C(=O)N1CCC[C@H]1C(=O)N[C@]1(C(=O)OCC)C[C@H]1C=C; rcm bond; Hoveyda 1st generation catalyst; 1,2-dichloroethane; 10.0 mM; 50.0 °C; 16.0 h

T1 sequence (P27958 1027-1657): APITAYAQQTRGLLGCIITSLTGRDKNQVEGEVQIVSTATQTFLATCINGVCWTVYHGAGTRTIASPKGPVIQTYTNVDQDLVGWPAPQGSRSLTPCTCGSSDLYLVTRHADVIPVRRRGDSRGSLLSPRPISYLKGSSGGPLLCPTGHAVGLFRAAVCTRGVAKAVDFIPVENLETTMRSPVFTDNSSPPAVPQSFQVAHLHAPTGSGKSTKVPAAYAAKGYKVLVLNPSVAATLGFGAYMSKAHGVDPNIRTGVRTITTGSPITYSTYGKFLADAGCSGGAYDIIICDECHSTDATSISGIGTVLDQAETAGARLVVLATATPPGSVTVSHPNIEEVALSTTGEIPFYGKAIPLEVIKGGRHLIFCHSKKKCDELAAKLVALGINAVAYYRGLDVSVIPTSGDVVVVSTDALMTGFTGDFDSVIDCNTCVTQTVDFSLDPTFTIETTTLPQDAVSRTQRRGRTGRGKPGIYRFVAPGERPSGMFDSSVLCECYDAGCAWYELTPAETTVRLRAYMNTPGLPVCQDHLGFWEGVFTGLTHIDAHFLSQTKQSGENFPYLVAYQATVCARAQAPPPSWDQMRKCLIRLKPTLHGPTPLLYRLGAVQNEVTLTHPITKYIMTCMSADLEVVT

| SMILES | IC50 [1] [nM] | EC50 [2] [nM] | ring closure, yield of all isomers [3] [%] |
| --- | --- | --- | --- |
| O=C1N[C@]2(C(=O)NS(=O)(=O)C3CC3)C[C@H]2/C=C\CCCCC[C@H](NCc2ccc(Cl)o2)C(=O)N2C[C@H](OC(=O)N3Cc4cccc(F)c4C3)C[C@@H]12 [Compound 914] | < 100 | < 100 | – |
| CCCC1(S(=O)(=O)NC(=O)[C@@]23C[C@H]2/C=C\CCCCC[C@H](NC(=O)OC(C)(C)C)C(=O)N2C[C@H](OC(=O)N4Cc5ccccc5C4)C[C@H]2C(=O)N3)CC1 [Compound 104] | < 100 | < 100 | – |
| O=C(N[C@H]1CCCCC/C=C\[C@@H]2C[C@@]2(C(=O)NS(=O)(=O)C2CC2)NC(=O)[C@@H]2C[C@@H](OC(=O)N3Cc4cccc(Cl)c4C3)CN2C1=O)OC1CCCC1 [Compound 141] | < 100 | < 100 | – |
| CC(C)N(C)S(=O)(=O)NC(=O)[C@@]12C[C@H]1/C=C\CCCCC[C@H](NC(=O)OC(C)(C)C)C(=O)N1C[C@H](OC(=O)N3Cc4ccccc4C3)C[C@H]1C(=O)N2 [Compound 201] | < 100 | < 100 | – |
| N[C@H]1CCC(F)(F)CC/C=C\[C@@H]2C[C@@]2(C(=O)NS(=O)(=O)C2CC2)NC(=O)[C@@H]2C[C@@H](OC(=O)N3Cc4ccccc4C3)CN2C1=O [Compound 1011] | < 100 | < 1000 | – |
| N[C@H]1CCCCC/C=C\[C@@H]2C[C@@]2(C(=O)NS(=O)(=O)C2CC2)NC(=O)[C@@H]2C[C@@H](OC(=O)N3Cc4cccc(F)c4C3)CN2C1=O [Compound 107] | < 100 | < 10000 | – |
| CC(C)(C)OC(=O)N[C@H]1CCCC/C=C\[C@@H]2C[C@@]2(C(=O)NS(=O)(=O)C2CC2)NC(=O)[C@@H]2C[C@@H](OC(=O)N3Cc4cccc(F)c4C3)CN2C1=O [Compound 267] | < 100 | < 100 | – |
| O=C1N[C@]2(C(=O)NS(=O)(=O)C3CC3)C[C@H]2/C=C\CCCCC[C@H](NCc2ccccc2C(F)(F)F)C(=O)N2C[C@H](OC(=O)N3Cc4cccc(F)c4C3)C[C@@H]12 [Compound 917] | < 100 | < 100 | – |
| O=C(N[C@H]1CCCCC/C=C\[C@@H]2C[C@@]2(C(=O)O)NC(=O)C2C[C@@H](OC(=O)N3Cc4cccc(F)c4C3)CN2C1=O)c1cnccn1 (some centres unmarked) [Compound 181] | < 1000 | < 10000 | – |
| CC(C)(C)OC(=O)N[C@H]1CCCCC/C=C\[C@@H]2C[C@@]2(C(=O)O)NC(=O)[C@@H]2C[C@@H](OC(=O)N3Cc4ccc(F)cc4C3)CN2C1=O [Compound 109] | < 100 | < 10000 | – |
| CC(C)(C)OC(=O)N[C@H]1CCCCC/C=C\[C@@H]2C[C@@]2(C(=O)NS(=O)(=O)c2ccc(Cl)s2)NC(=O)[C@@H]2C[C@@H](OC(=O)N3Cc4cccc(Cl)c4C3)CN2C1=O [Compound 164] | < 100 | < 100 | – |
| O=C1N[C@]2(C(=O)NS(=O)(=O)C3CC3)C[C@H]2/C=C\CCCCC[C@H](NC2CCC2)C(=O)N2C[C@H](OC(=O)N3Cc4cccc(F)c4C3)C[C@@H]12 [Compound 907] | < 100 | < 1000 | – |
| Cc1cccc(C)c1CN[C@H]1CCCCC/C=C\[C@@H]2C[C@@]2(C(=O)NS(=O)(=O)C2CC2)NC(=O)[C@@H]2C[C@@H](OC(=O)N3Cc4cccc(F)c4C3)CN2C1=O [Compound 918] | < 100 | < 1000 | – |
| CCOC(=O)[C@@]12C[C@H]1C=CCCCCC[C@H](NC(=O)OC(C)(C)C)C(=O)N1CCC[C@H]1C(=O)N2 | – | – | 76 |
| CC(C)(C)c1csc(N[C@H]2CCCCC/C=C\[C@@H]3C[C@@]3(C(=O)NS(=O)(=O)C3CC3)NC(=O)[C@@H]3C[C@@H](OC(=O)N4Cc5cccc(F)c5C4)CN3C2=O)n1 [Compound 925] | < 100 | < 100 | – |
| COc1cc2c(cc1OC)CN(C(=O)O[C@@H]1C[C@H]3C(=O)N[C@]4(C(=O)NS(=O)(=O)N5CCOCC5)C[C@H]4/C=C\CCCCC[C@H](NC(=O)OC(C)(C)C)C(=O)N3C1)CC2 [Compound 208] | < 100 | < 10000 | – |
| Cc1ccccc1S(=O)(=O)NC(=O)[C@@]12C[C@H]1/C=C\CCCCC[C@H](NC(=O)OC(C)(C)C)C(=O)N1C[C@H](OC(=O)N3Cc4cccc(F)c4C3)C[C@H]1C(=O)N2 [Compound 157] | < 100 | < 100 | – |
| CC(C)(C)OC(=O)N[C@H]1CCCCC/C=C\[C@@H]2C[C@@]2(C(=O)N[C@H]2CCS(=O)(=O)C2)NC(=O)[C@@H]2C[C@@H](OC(=O)N3Cc4cccc(F)c4C3)CN2C1=O [Compound 634] | < 1000 | < 10000 | – |
